Laboratory results taken from patent US6916432B2, “Hair bleach composition and hair dye composition” (Kao Corporation, priority 2000, dated 2005).

Assay: partition coefficient (octanol-water) (log P) at 25° C.
Conditions: octanol-water, 25° C.

For COCCOCCO [methoxydiglycol], the “log P (at 25° C.)” value was −0.7.

Same assay, conditions: octanol/water

Point of comparison: CC(O)CO (centres unmarked) [propylene glycol], logP -1.1. Against it:
- CC(O)COc1ccccc1 (centres unmarked) [1-phenoxy-2-propanol] — higher, 1.1
- OCCOCc1ccccc1 [2-benzyloxyethanol] — higher, 1.2
- CCOCCO [2-ethoxyethanol] — higher, -0.2
- CCN1CCCC1=O [N-ethylpyrrolidone] — higher, -0.2
- CN1CCCC1=O [N-methylpyrrolidone] — higher, -0.5
- CCCCOCCOCCO [diethylene glycol mono-n-butyl ether] — higher, 0.9
- OCC(O)CO [glycerin] — lower, -2.2

Assay: physchem
Conditions: not given

Point of comparison: OCCOc1ccccc1 [2-phenoxyethanol], logP 1.2. Against it:
- CC(O)CCO (centres unmarked) [1,3-butanediol] — lower, -1.4
- OC1CCCCC1 [cyclohexanol] — the same, 1.2
- OCCOCCO [diethylene glycol] — lower, -1.3
- CCCCOCCO [ethylene glycol mono-n-butyl ether] — lower, 0.8
